Assay results: BindingDB's records for PubMed 11160654 (Kitasato University, 2001)

Target: Glutamate receptor 3 (Rattus norvegicus, UniProt P19492)
Sequence (P19492 whole entry): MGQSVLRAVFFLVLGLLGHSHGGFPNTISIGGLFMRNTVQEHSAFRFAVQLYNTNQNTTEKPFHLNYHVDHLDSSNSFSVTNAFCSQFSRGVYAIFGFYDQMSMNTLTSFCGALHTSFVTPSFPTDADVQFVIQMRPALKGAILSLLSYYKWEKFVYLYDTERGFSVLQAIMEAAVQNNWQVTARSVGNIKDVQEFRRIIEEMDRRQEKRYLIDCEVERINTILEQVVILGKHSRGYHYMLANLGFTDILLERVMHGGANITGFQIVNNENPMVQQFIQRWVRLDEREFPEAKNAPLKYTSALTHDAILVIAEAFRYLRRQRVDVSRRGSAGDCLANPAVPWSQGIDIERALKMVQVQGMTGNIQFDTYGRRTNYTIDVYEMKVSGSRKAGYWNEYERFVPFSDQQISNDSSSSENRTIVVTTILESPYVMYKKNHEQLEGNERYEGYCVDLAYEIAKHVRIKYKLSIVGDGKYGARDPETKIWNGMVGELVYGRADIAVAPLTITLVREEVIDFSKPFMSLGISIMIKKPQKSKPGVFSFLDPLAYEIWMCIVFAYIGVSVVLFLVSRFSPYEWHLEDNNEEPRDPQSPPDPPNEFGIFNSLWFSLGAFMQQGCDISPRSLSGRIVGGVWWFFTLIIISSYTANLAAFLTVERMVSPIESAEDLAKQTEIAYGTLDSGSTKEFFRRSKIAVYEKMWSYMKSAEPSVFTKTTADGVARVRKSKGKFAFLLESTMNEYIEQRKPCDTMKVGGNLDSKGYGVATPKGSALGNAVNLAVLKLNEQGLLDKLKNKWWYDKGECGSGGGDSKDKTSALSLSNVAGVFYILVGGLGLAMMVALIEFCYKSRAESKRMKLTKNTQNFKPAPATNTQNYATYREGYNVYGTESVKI

Molecule `CN[C@H](CC(=O)O)C(=O)O` [NMDA] has a Ki of 3.9 µM.
